{"source": "patent US8158605B2", "about": "“Azacytidine analogues and uses thereof” (Mount Sinai School of Medicine, priority 2007, dated 2012)", "key": {"cell cycle": {"system": "cell cycle", "test": "Cell cycle analysis of DNA contents by flow cytometry", "assay_type": "cell-based", "method": "Cells were pelleted by centrifugation, and washed twice with PBS, fixed with 70% (v/v) cold ethanol (−20° C.), and stored at 4° C. for at least 24 hours. The cells were washed in PBS. Cell pellets were stained with PI/RNase staining solution. The cell suspension was incubated in the dark at room temperature for 30 min. DNA content was determined using a FACSCalibur flow cytometry (Becton Dickinson, Mount View, Calif.). Percentages of cells in Sub-G1, G1, S and G2/M stages of the cell cycle were determined with DNA histogram-fitting program (Becton Dickinson). A minimum of 10,000 events per sample was recorded.\nCells were cultured for the indicated lengths of time before being processed for analyses of DNA contents by flow cytometry. Numerical values in a panel represent gated cell population with sub-G1 DNA contents. The most significant changes were observed after 24 hours of treatment."}, "estrogen receptor beta": {"system": "estrogen receptor beta", "test": "Gene expression of estrogen receptor β by real-time PCR in MCF-7 cells", "assay_type": "cell-based", "conditions": "MCF-7, 1 μM, 5 days", "method": "The gene expression (determined on RNA level) of estrogen receptor beta was determined by quantitative real-time PCR. (TaqMan). MCF-7 mammary carcinoma cells were grown in estrogen deficient media (Phenol-Red-free RPMI with 2% glutamine and 10% charcoal-dextran treated fetal calf serum). […] One untreated control was included as control. The cells were harvested after 5 days of exposure to the compounds; they were harvested by trypsination, washed and shock frozen in liquid nitrogen.\nThe total RNA was extracted from approximately 10^6 shock frozen MCF-7 cells. The RNA concentration and purity was measured, and RNA was transcribed into cDNA using TaqMan Reverse Trancription reagents (N808-0234). Real-time quantification was performed using standard protocols and premixed PCR reagents. The primer-probe mixes were ordered from Applied Biosystems, ER β (ID Hs00230957_ml) and housekeeping gene hydrocylmethyl-bilane synthase HMBS (ID Hs00609297_ml). Gene expression was calculated using the comparative delta-delta Ct method."}, "[1]": {"system": "U937, HL60 and K562 cells", "test": "Differentiating induction (NBT reduction, benzidine staining)", "assay_type": "cell-based, human", "conditions": "repeated exposure for 11 (HL60) or 14 (U937, K562) days", "method": "Cell differentiation was studied in terms of morphology. […] After initial treatment on day 0, cells were exposed to the new portions of drugs on day 4, 7, and 10. The differentiation was evaluated by NBT reduction assay (U937 and HL60) or by benzidine staining (K562)."}, "[2]": {"test": "Metabolic stability in pooled human plasma at 37° C.", "assay_type": "in vitro ADME", "description": "The mixture was incubated in a shaking water batch at 37° C. Aliquots (100 μl) of the incubation solutions were withdrawn in triplicate (n=3) at the designed incubation period (0, 15, 30, 60 and 120 minutes), and plasma protein was immediately precipitated using acetonitrile containing 0.1% formic acid (300 μl). […] After centrifugation, the supernatant was directly introduced for LC-MS-MS analysis."}}}
{"smiles": "CCCCCCCC/C=C/CCCCCCCC(=O)OC[C@H]1O[C@@H](n2cnc(N)nc2=O)[C@H](O)[C@@H]1O", "note": "[CP, 5-azacytidine 5′-elaidate]", "values": [{"measurement": "% cell G1", "setting": "cell cycle; 24 hour, dose 0.5 μM", "result": 43.66, "unit": "%"}, {"measurement": "% cell G2/M", "setting": "cell cycle; 24 hour, dose 0.5 μM", "result": 11.05, "unit": "%"}, {"measurement": "% cell S", "setting": "cell cycle; 24 hour, dose 0.5 μM", "result": 28.15, "unit": "%"}, {"measurement": "% cell Sub G1", "setting": "cell cycle; 24 hour, dose 0.5 μM", "result": 9.41, "unit": "%"}, {"measurement": "% cell G1", "setting": "cell cycle; 24 hour, dose 1 μM", "result": 36.17, "unit": "%"}, {"measurement": "% cell G2/M", "setting": "cell cycle; 24 hour, dose 1 μM", "result": 8.82, "unit": "%"}, {"measurement": "% cell S", "setting": "cell cycle; 24 hour, dose 1 μM", "result": 18.98, "unit": "%"}, {"measurement": "% cell Sub G1", "setting": "cell cycle; 24 hour, dose 1 μM", "result": 21.02, "unit": "%"}, {"measurement": "% cell G1", "setting": "cell cycle; 24 hour, dose 2 μM", "result": 23.45, "unit": "%"}, {"measurement": "% cell G2/M", "setting": "cell cycle; 24 hour, dose 2 μM", "result": 2.64, "unit": "%"}, {"measurement": "% cell S", "setting": "cell cycle; 24 hour, dose 2 μM", "result": 9.14, "unit": "%"}, {"measurement": "% cell Sub G1", "setting": "cell cycle; 24 hour, dose 2 μM, listed as 5-azacytidine 5′-elaidate", "result": 33.6, "unit": "%"}, {"measurement": "% cell Sub G1", "setting": "cell cycle; 24 hour, dose 2 μM, listed as cp", "result": 33.59, "unit": "%"}, {"measurement": "% cell G1", "setting": "cell cycle; 48 hour, dose 0.5 μM", "result": 34.79, "unit": "%"}, {"measurement": "% cell G2/M", "setting": "cell cycle; 48 hour, dose 0.5 μM", "result": 2.53, "unit": "%"}, {"measurement": "% cell S", "setting": "cell cycle; 48 hour, dose 0.5 μM", "result": 42.96, "unit": "%"}, {"measurement": "% cell Sub G1", "setting": "cell cycle; 48 hour, dose 0.5 μM", "result": 15.14, "unit": "%"}, {"measurement": "% cell G1", "setting": "cell cycle; 48 hour, dose 1 μM", "result": 28.07, "unit": "%"}, {"measurement": "% cell G2/M", "setting": "cell cycle; 48 hour, dose 1 μM", "result": 17.91, "unit": "%"}, {"measurement": "% cell S", "setting": "cell cycle; 48 hour, dose 1 μM", "result": 30.06, "unit": "%"}, {"measurement": "% cell Sub G1", "setting": "cell cycle; 48 hour, dose 1 μM", "result": 14.34, "unit": "%"}, {"measurement": "% cell G1", "setting": "cell cycle; 48 hour, dose 2 μM", "result": 22.51, "unit": "%"}, {"measurement": "% cell G2/M", "setting": "cell cycle; 48 hour, dose 2 μM", "result": 7.78, "unit": "%"}, {"measurement": "% cell S", "setting": "cell cycle; 48 hour, dose 2 μM", "result": 15.62, "unit": "%"}, {"measurement": "% cell Sub G1", "setting": "cell cycle; 48 hour, dose 2 μM", "result": 24.34, "unit": "%"}, {"measurement": "% cell G1", "setting": "cell cycle; 72 hour, dose 0.5 μM", "result": 38.72, "unit": "%"}, {"measurement": "% cell G2/M", "setting": "cell cycle; 72 hour, dose 0.5 μM", "result": 18.82, "unit": "%"}, {"measurement": "% cell S", "setting": "cell cycle; 72 hour, dose 0.5 μM", "result": 29.18, "unit": "%"}, {"measurement": "% cell Sub G1", "setting": "cell cycle; 72 hour, dose 0.5 μM", "result": 10.54, "unit": "%"}, {"measurement": "% cell G1", "setting": "cell cycle; 72 hour, dose 1 μM", "result": 40.67, "unit": "%"}, {"measurement": "% cell G2/M", "setting": "cell cycle; 72 hour, dose 1 μM", "result": 18.26, "unit": "%"}, {"measurement": "% cell S", "setting": "cell cycle; 72 hour, dose 1 μM", "result": 28.77, "unit": "%"}, {"measurement": "% cell Sub G1", "setting": "cell cycle; 72 hour, dose 1 μM", "result": 10.75, "unit": "%"}, {"measurement": "Ct ER β", "setting": "estrogen receptor beta", "result": 32.97}, {"measurement": "delta", "setting": "estrogen receptor beta", "result": 7.06}, {"measurement": "Delta delta", "setting": "estrogen receptor beta; versus untreated", "result": "−2.40"}, {"measurement": "differentiation induction", "setting": "[1]", "result": "did not induce significant differentiation"}, {"measurement": "half-life at 0.1 μM", "setting": "[2]; 0.1 μM", "result": 2.68, "unit": "h"}, {"measurement": "% Remaining of initial (mean ± SD, n = 3)", "setting": "[2]; 0.1 μM, 0 min", "result": 100, "unit": "%"}, {"measurement": "% Remaining of initial (mean ± SD, n = 3)", "setting": "[2]; 0.1 μM, 15 min", "result": "95.8 ± 3.0", "unit": "%"}, {"measurement": "% Remaining of initial (mean ± SD, n = 3)", "setting": "[2]; 0.1 μM, 30 min", "result": "95.0 ± 2.0", "unit": "%"}, {"measurement": "% Remaining of initial (mean ± SD, n = 3)", "setting": "[2]; 0.1 μM, 60 min", "result": "92.1 ± 3.4", "unit": "%"}, {"measurement": "% Remaining of initial (mean ± SD, n = 3)", "setting": "[2]; 0.1 μM, 120 min", "result": "59.0 ± 1.6", "unit": "%"}, {"measurement": "half-life at 1 μM", "setting": "[2]; 1 μM", "result": 2.17, "unit": "h"}, {"measurement": "% Remaining of initial (mean ± SD, n = 3)", "setting": "[2]; 1 μM, 0 min", "result": 100, "unit": "%"}, {"measurement": "% Remaining of initial (mean ± SD, n = 3)", "setting": "[2]; 1 μM, 15 min", "result": "93.3 ± 1.1", "unit": "%"}, {"measurement": "% Remaining of initial (mean ± SD, n = 3)", "setting": "[2]; 1 μM, 30 min", "result": "88.9 ± 1.1", "unit": "%"}, {"measurement": "% Remaining of initial (mean ± SD, n = 3)", "setting": "[2]; 1 μM, 60 min", "result": "79.8 ± 2.6", "unit": "%"}, {"measurement": "% Remaining of initial (mean ± SD, n = 3)", "setting": "[2]; 1 μM, 120 min", "result": "52.5 ± 3.1", "unit": "%"}, {"measurement": "half-life at 3 μM", "setting": "[2]; 3 μM", "result": 2.35, "unit": "h"}, {"measurement": "% Remaining of initial (mean ± SD, n = 3)", "setting": "[2]; 3 μM, 0 min", "result": 100, "unit": "%"}, {"measurement": "% Remaining of initial (mean ± SD, n = 3)", "setting": "[2]; 3 μM, 15 min", "result": "99.0 ± 3.5", "unit": "%"}, {"measurement": "% Remaining of initial (mean ± SD, n = 3)", "setting": "[2]; 3 μM, 30 min", "result": "96.0 ± 3.0", "unit": "%"}, {"measurement": "% Remaining of initial (mean ± SD, n = 3)", "setting": "[2]; 3 μM, 60 min", "result": "85.4 ± 3.4", "unit": "%"}, {"measurement": "% Remaining of initial (mean ± SD, n = 3)", "setting": "[2]; 3 μM, 120 min", "result": "56.6 ± 1.6", "unit": "%"}, {"measurement": "half-life at 10 μM", "setting": "[2]; 10 μM", "result": 1.43, "unit": "h"}, {"measurement": "% Remaining of initial (mean ± SD, n = 3)", "setting": "[2]; 10 μM, 0 min", "result": 100, "unit": "%"}, {"measurement": "% Remaining of initial (mean ± SD, n = 3)", "setting": "[2]; 10 μM, 15 min", "result": "96.0 ± 2.0", "unit": "%"}, {"measurement": "% Remaining of initial (mean ± SD, n = 3)", "setting": "[2]; 10 μM, 30 min", "result": "93.1 ± 0.0", "unit": "%"}, {"measurement": "% Remaining of initial (mean ± SD, n = 3)", "setting": "[2]; 10 μM, 60 min", "result": "77.1 ± 3.1", "unit": "%"}, {"measurement": "% Remaining of initial (mean ± SD, n = 3)", "setting": "[2]; 10 μM, 120 min", "result": "39.1 ± 1.7", "unit": "%"}, {"measurement": "half-life at 30 μM", "setting": "[2]; 30 μM", "result": 1.82, "unit": "h"}, {"measurement": "% Remaining of initial (mean ± SD, n = 3)", "setting": "[2]; 30 μM, 0 min", "result": 100, "unit": "%"}, {"measurement": "% Remaining of initial (mean ± SD, n = 3)", "setting": "[2]; 30 μM, 15 min", "result": "97.7 ± 3.5", "unit": "%"}, {"measurement": "% Remaining of initial (mean ± SD, n = 3)", "setting": "[2]; 30 μM, 30 min", "result": "90.4 ± 2.6", "unit": "%"}, {"measurement": "% Remaining of initial (mean ± SD, n = 3)", "setting": "[2]; 30 μM, 60 min", "result": "78.5 ± 1.7", "unit": "%"}, {"measurement": "% Remaining of initial (mean ± SD, n = 3)", "setting": "[2]; 30 μM, 120 min", "result": "47.4 ± 1.1", "unit": "%"}]}
